# Results reported in PMC8495455, “Discovery of a transdermally deliverable pentapeptide for activating AdipoR1 to promote hair growth” (EMBO Molecular Medicine, 2021).
# Tests used:
# HGF protein = test: Growth factor protein quantitation in DP cell medium, HGF; type: cell-based, human; conditions: for protein_HGF: DP cell medium
# Text: (§1) Next, we investigated the downstream effects of P5 on hair growth factor genes and proteins in DP cells. […] We tested whether P5 can also increase the mRNA levels and proteins of hair growth factors in DP cells: IGF‐1, VEGF, HGF, platelet‐derived growth factor alpha (PDGFA), and fibroblast growth factor (FGF) 7, which are known to induce or maintain the anagen phase of the hair cycle (Jindo et al, [1994]; Philpott et al, [1994]; Yano et al, [2001]; Jang, [2005]; Tomita et al, [2006]; Iino et al, [2007]).
# (§2) Human DP cells were grown on a 100‐mm cell culture dish to 100% confluency. After washed by PBS three times, the cells were cultured with serum‐free DMEM and treated with P5. After 48 h, the medium was collected and filtered by a […]. The filtrate was then concentrated using a centrifugal concentrator (Vivaspin 6, 10‐kDa molecular weight cutoff, centrifuged 2,600 g at 4°C for 13 min, Sartorius Stedim Biotech). The signals of each protein in the concentrated media were detected and quantified, based on the enzyme‐linked immunosorbent assay (Human Cytokine Antibody Array C2000, RayBiotech).
# human DP cells = test: MTT cell proliferation assay, DP cells; type: cell-based; conditions: 48 h
# Text: To design transdermally deliverable AdipoR1 agonist, we further assessed the 15‐mer sequence by cutting it into several 5‐mer peptides (Fig EV1B) (Bos & Meinardi, [2000]). Based on the fact that AdipoRs are expressed in HF cells, including dermal papilla (DP) and outer root sheath (ORS) cells (Won et al, [2012]), we performed a cell proliferation assay on human DP and ORS cells to see if there is any potential biological effect of the 5‐mer peptides on the human HF cells.
# Dermal papilla cells and ORS cells were seeded into a 96‐well plate (1.0 × 10^4 cells/well) with serum‐free culture media for 24 h and then treated with each candidate 5‐mer peptide (in 0.5 μg/ml or 5 μg/ml) for 48 h. After the addition of MTT solution (20 μl, 5 mg/ml) to each well, the cells were incubated for 4 h at 37°C in the dark room and then incubated with dimethyl sulfoxide (DMSO, 200 μl) for 20 min at room temperature. The samples were assessed by measuring the absorbance at 570 nm with an absorbance microplate reader (VersaMax).
# VEGF mRNA = test: qRT-PCR growth factor gene expression in DP cells, VEGF; type: cell-based, human; conditions: for mRNA_VEGF: DP cells
# Text: as §1
# (§3) Total RNA was isolated from P5‐treated DP cells using RNAiso Plus (#9109; TaKaRa). We used the total RNA (1 µg) for cDNA synthesis using a RevertAid First Strand cDNA Synthesis Kit (Thermo Fisher) according to the manufacturer's instructions. The mRNA expression levels were quantified on a 7500 Real‐time PCR System (Thermo Fisher) using TB Green Premix Ex Taq (TaKaRa Bio): human IGF‐1, VEGF, HGF, PDGFA, FGF7, and glyceraldehyde 3‐phosphate dehydrogenase (GAPDH) (Appendix Table S2). The relative expression levels of each gene were determined by the 2^‐ΔΔCT method.
# VEGF protein = test: Growth factor protein quantitation in DP cell medium, VEGF; type: cell-based, human; conditions: for protein_VEGF: DP cell medium
# Text: as §1, §2
# [1] = test system: p-AMPK in ORS and DP cells of human HFs; test: IF staining p-AMPK of ex vivo cultured HF bulb; type: cell-based; conditions: vs vehicle
# Text: We next investigated whether P5 can reproduce the effects of APN on hair growth promotion ex vivo (Won et al, [2012]) using ex vivo human HF organ culture model. […] The Ki‐67‐positive cell portion of the matrix area in the P5‐treated HFs was higher than that in the vehicle‐treated group (Fig 3E).
# Paraffin‐embedded mouse cutaneous back tissue was sectioned (4 μm thickness) and stained with hematoxylin and eosin. For IF staining, human ORS cells cultured in FiTC‐P5, sectioned paraffin‐embedded human HFs (7 μm thickness), and sectioned paraffin‐embedded mouse cutaneous dorsal tissue or human skin tissue (5 μm thickness) were incubated at 4°C overnight with the following primary antibodies diluted in the diluent reagent (Invitrogen): phospho‐AMPK (#2535, 1:100; Cell Signaling), Ki‐67 (#M7240, 1:200; Dako), versican (#ab177480, 1:200; Abcam), or AdipoR1 antibody (#ab126611, 1:200; Abcam). After three washes with PBS, the slides were incubated with the secondary Alexa Fluor 488‐labeled anti‐mouse or rabbit IgG antibody (#ab150077, #ab150113, 1:200; Invitrogen), or Alexa Fluor 594‐labeled anti‐rabbit IgG antibody (#a11012, 1:200; Invitrogen) at 25°C for 1 h. Nuclei were counterstained with 4′,6‐diamidino‐2‐phenylindole (DAPI; #D1306, 1:1,000; Invitrogen). […] IF intensity was observed and recorded with a Nikon Eclipse Ni‐E fluorescence microscope (Nikon).
# FGF7 mRNA = test: qRT-PCR growth factor gene expression in DP cells, FGF7; type: cell-based, human; conditions: for mRNA_FGF7: DP cells
# Text: as §1, §3
# IGF-1 protein = test: Growth factor protein quantitation in DP cell medium, IGF-1; type: cell-based, human; conditions: for protein_IGF1: DP cell medium
# Text: as §1, §2
# [2] = P5 5μM, relative to Control = 1, replicate 1
# [3] = P5 5μM, relative to Control = 1, replicate 2
# [4] = P5 5μM, relative to Control = 1, replicate 3
# [5] = P5 25μM, relative to Control = 1, replicate 1
# [6] = P5 25μM, relative to Control = 1, replicate 2
# [7] = P5 25μM, relative to Control = 1, replicate 3
# [8] = P5-treated DP cells, 48 h medium, n = 3
# [9] = P5 5μM, relative to Control = 1, replicate 4
# [10] = P5 25μM, relative to Control = 1, replicate 4
substance,measurement,setting,value
"GLYYF [P5, GST-fused (GST-P5) in pulldown assays]",protein_HGF,HGF protein; [2],1.103
same,protein_HGF,HGF protein; [3],1.31
same,protein_HGF,HGF protein; [4],1.677
same,protein_HGF,HGF protein; [5],1.711
same,protein_HGF,HGF protein; [6],2.432
same,protein_HGF,HGF protein; [7],3.924
same,HGF protein expression level,HGF protein; [8],elevated
same,"Relative cell proliferation, DP","human DP cells; 0.5μg/ml, control = 1, replicate 1",1.11
same,"Relative cell proliferation, DP","human DP cells; 0.5μg/ml, control = 1, replicate 2",1.117
same,"Relative cell proliferation, DP","human DP cells; 0.5μg/ml, control = 1, replicate 3",1.106
same,"Relative cell proliferation, DP","human DP cells; 5μg/ml, control = 1, replicate 1",1.094
same,"Relative cell proliferation, DP","human DP cells; 5μg/ml, control = 1, replicate 2",1.179
same,"Relative cell proliferation, DP","human DP cells; 5μg/ml, control = 1, replicate 3",1.068
same,"Relative cell proliferation, DP","human DP cells; 5μg/ml, control = 1, replicate 4",1.07
same,"Relative cell proliferation, DP","human DP cells; 5μg/ml, control = 1, replicate 5",1.01
same,"Cell proliferative effect, DP cells","human DP cells; 0.5 or 5 μg/ml, Paired t-test vs control",significant cell proliferative effects
same,mRNA_VEGF,VEGF mRNA; [2],1.194
same,mRNA_VEGF,VEGF mRNA; [3],1.24
same,mRNA_VEGF,VEGF mRNA; [4],0.9876
same,mRNA_VEGF,VEGF mRNA; [9],0.849
same,mRNA_VEGF,VEGF mRNA; [5],2.123
same,mRNA_VEGF,VEGF mRNA; [6],1.672
same,mRNA_VEGF,VEGF mRNA; [7],2.456
same,mRNA_VEGF,VEGF mRNA; [10],1.575
same,VEGF mRNA expression,"VEGF mRNA; P5-treated DP cells, n = 4",significantly increased
same,protein_VEGF,VEGF protein; [2],1.476
same,protein_VEGF,VEGF protein; [3],1.303
same,protein_VEGF,VEGF protein; [4],1.526
same,protein_VEGF,VEGF protein; [5],1.967
same,protein_VEGF,VEGF protein; [6],2.185
same,protein_VEGF,VEGF protein; [7],1.674
same,VEGF protein expression level,VEGF protein; [8],elevated
same,p-AMPK in HF bulb (IF staining),[1],prominently detected in ORS and DP cells
same,mRNA_FGF7,FGF7 mRNA; [2],1.288
same,mRNA_FGF7,FGF7 mRNA; [3],1.147
same,mRNA_FGF7,FGF7 mRNA; [4],3.986
same,mRNA_FGF7,FGF7 mRNA; [9],1.127
same,mRNA_FGF7,"FGF7 mRNA; P5 5μM, relative to Control = 1, replicate 5",3.017
same,mRNA_FGF7,"FGF7 mRNA; P5 5μM, relative to Control = 1, replicate 6",4.5839
same,mRNA_FGF7,FGF7 mRNA; [5],1.191
same,mRNA_FGF7,FGF7 mRNA; [6],1.18
same,mRNA_FGF7,FGF7 mRNA; [7],4.101
same,mRNA_FGF7,FGF7 mRNA; [10],1.133
same,mRNA_FGF7,"FGF7 mRNA; P5 25μM, relative to Control = 1, replicate 5",2.672
same,mRNA_FGF7,"FGF7 mRNA; P5 25μM, relative to Control = 1, replicate 6",4.897
same,FGF7 mRNA expression,"FGF7 mRNA; P5-treated DP cells, n = 6",significantly increased
same,protein_IGF1,IGF-1 protein; [2],0.9827
same,protein_IGF1,IGF-1 protein; [3],1.413
same,protein_IGF1,IGF-1 protein; [4],2.07
same,protein_IGF1,IGF-1 protein; [5],1.764
same,protein_IGF1,IGF-1 protein; [6],4.926
same,protein_IGF1,IGF-1 protein; [7],5.716
same,IGF-1 protein expression level,IGF-1 protein; [8],elevated
